The numbers were not newly measured in paper PMC9389804 (Journal of Hematology & Oncology, 2022), which cites them from elsewhere.

On the set-up of this data set: method as in PMID 29567798. The settings on record: median follow-up of 5 years; cited from earlier work.

In the case of `Cc1ccc(C(=O)Nc2ccc(CN3CCN(C)CC3)c(C(F)(F)F)c2)cc1C#Cc1cnc2cccnn12` [ponatinib], the “incidence of arterial occlusive and venous thrombotic events” value is listed as 31.0%.
